According to the supplement of paper PMC11061612:

Assays:
Assay in all cases: combination Emax (second highest fraction inhibited in the dose matrix, 72 h); higher = more inhibition; extreme values may be limits of the assay
[1] = system: CAL-62 (Thyroid Gland Carcinoma)
Outline: (§1)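 After 24 hours at 37°C and 5% CO2 in 1536-well plates, cells in DMEM/F12 or RPMI plus 10% FBS received two-drug dose matrices for 72 hours. Viability came from CellTiter-Glo 2.0 luminescence and was scaled as inhibition, anchored at 0 by vehicle wells and at 1 by blank wells. Combination Emax is taken as the second-highest inhibition in the matrix, and Bliss excess as the observed combination effect less EA + EB − EA·EB, with EA and EB the single-agent effects.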

[2] = system: GB-1 (Glioblastoma)
Outline: as §1

[3] = system: GP5d (Colorectal Carcinoma)
Outline: as §1

[4] = system: HEC-1 (Endometrial Carcinoma)
Outline: as §1

[5] = system: IST-MES1 (Mesothelioma)
Outline: as §1

[6] = system: KE-37 (T-Lymphoblastic Leukemia)
Outline: as §1

[7] = system: L-1236 (Hodgkin's Lymphoma)
Outline: as §1

[8] = system: LK-2 (Squamous Cell Lung Carcinoma)
Outline: as §1

[9] = system: LN-229 (Glioblastoma)
Outline: as §1

[10] = system: LXF-289 (Lung Adenocarcinoma)
Outline: as §1

[11] = system: MFE-280 (Endometrial Carcinoma)
Outline: as §1

[12] = system: NCI-H446 (Small Cell Lung Carcinoma)
Outline: as §1

[13] = system: OPM-2 (Plasma Cell Myeloma)
Outline: as §1

[14] = system: OVMIU (Ovarian Carcinoma)
Outline: as §1

[15] = system: PANC-03-27 (Pancreatic Carcinoma)
Outline: as §1

[16] = system: SF268 (Low Grade Glioma)
Outline: as §1

[17] = system: SF539 (Glioblastoma)
Outline: as §1

[18] = system: SK-PN-DW (Other Solid Carcinomas)
Outline: as §1

[19] = system: TE-8 (Esophageal Squamous Cell Carcinoma)
Outline: as §1

[20] = system: VAL (B-Cell Non-Hodgkin's Lymphoma)
Outline: as §1

CN(C)CCCOc1ccc(-c2ccc3ncc4c(c3c2)n(C2CCOCC2)c(=O)n4C)cn1 [AZD0156] + C=CCn1c(=O)c2cnc(Nc3ccc(N4CCN(C)CC4)cc3)nc2n1-c1cccc(C(C)(C)O)n1 [AZD1775] (first compound max 1 µM, partner max 1 µM)
combination Emax [1]: 0.709
combination Emax [2]: 0.263
combination Emax [3]: 0.664
combination Emax [4]: 0.0682
combination Emax [5]: 0.207
combination Emax [6]: 1
combination Emax [7]: 0.755
combination Emax [8]: 0.898
combination Emax [9]: 0.314
combination Emax [10]: 0.264
combination Emax [11]: 0.55
combination Emax [12]: 0.801
combination Emax [13]: 0.805
combination Emax [14]: 0.519
combination Emax [15]: 0.91
combination Emax [16]: 0.225
combination Emax [17]: 1
combination Emax [18]: 0.871
combination Emax [19]: 0.783
combination Emax [20]: 0.846

CN(C)CCCOc1ccc(-c2ccc3ncc4c(c3c2)n(C2CCOCC2)c(=O)n4C)cn1 [AZD0156] + CCN(CCO)CCCOc1ccc2c(Nc3cc(CC(=O)Nc4cccc(F)c4)[nH]n3)ncnc2c1 [AZD2811] (first compound max 1 µM, 7x7, partner max 1 µM)
combination Emax [1]: 0.182
combination Emax [2]: 0.0845
combination Emax [3]: 0.456
combination Emax [4]: 0.0528
combination Emax [5]: 0.172
combination Emax [6]: 1
combination Emax [7]: 0.215
combination Emax [8]: 0.834
combination Emax [9]: 0.123
combination Emax [10]: 0.507
combination Emax [11]: 0.47
combination Emax [12]: 0.838
combination Emax [13]: 0.436
combination Emax [14]: 0.144
combination Emax [15]: 0.2
combination Emax [16]: 0.142
combination Emax [17]: 0.394
combination Emax [18]: 0.605
combination Emax [19]: 0.196
combination Emax [20]: 0.801

CN(C)CCCOc1ccc(-c2ccc3ncc4c(c3c2)n(C2CCOCC2)c(=O)n4C)cn1 [AZD0156] + C[C@@H]1COCCN1C2=NC(=NC(=C2)C3(CC3)[S@](=N)(=O)C)C4=C5C=CNC5=NC=C4 [AZD6738] (first compound max 1 µM, 7x7, partner max 10 µM)
combination Emax [1]: 0.755
combination Emax [2]: 0.392
combination Emax [3]: 0.883
combination Emax [4]: 0.363
combination Emax [5]: 0.176
combination Emax [6]: 1
combination Emax [7]: 0.634
combination Emax [8]: 0.501
combination Emax [9]: 0.54
combination Emax [10]: 0.573
combination Emax [11]: 0.335
combination Emax [12]: 0.779
combination Emax [13]: 0.776
combination Emax [14]: 0.396
combination Emax [15]: 0.862
combination Emax [16]: 0.497
combination Emax [17]: 0.929
combination Emax [18]: 0.928
combination Emax [19]: 0.817
combination Emax [20]: 0.911

CN(C)CCCOc1ccc(-c2ccc3ncc4c(c3c2)n(C2CCOCC2)c(=O)n4C)cn1 [AZD0156] + O=C(c1cc(Cc2n[nH]c(=O)c3ccccc23)ccc1F)N1CCN(C(=O)C2CC2)CC1 [Olaparib] (first compound max 3 µM, partner max 3 µM)
combination Emax [1]: 0.342
combination Emax [2]: 0.238
combination Emax [3]: 0.297
combination Emax [4]: 0.139
combination Emax [5]: 0.212
combination Emax [6]: 0.415
combination Emax [7]: 0.326
combination Emax [8]: 0.372
combination Emax [9]: 0.107
combination Emax [10]: 0.4
combination Emax [11]: 0.312
combination Emax [12]: 0.362
combination Emax [13]: 0.231
combination Emax [14]: 0.347
combination Emax [15]: 0.225
combination Emax [16]: 0.21
combination Emax [17]: 0.501
combination Emax [18]: 0.289
combination Emax [20]: 0.542

C=CCn1c(=O)c2cnc(Nc3ccc(N4CCN(C)CC4)cc3)nc2n1-c1cccc(C(C)(C)O)n1 [AZD1775] + C1CN(CCC1(C(=O)N[C@@H](CCO)C2=CC=C(C=C2)Cl)N)C3=NC=NC4=C3C=CN4 [Capivasertib] (first compound max 3 µM, partner max 3 µM)
combination Emax [1]: 0.868
combination Emax [2]: 0.625
combination Emax [3]: 0.973
combination Emax [4]: 0.615
combination Emax [5]: 0.292
combination Emax [6]: 1
combination Emax [7]: 0.876
combination Emax [8]: 0.941
combination Emax [9]: 0.419
combination Emax [10]: 0.836
combination Emax [11]: 0.451
combination Emax [12]: 0.972
combination Emax [13]: 0.967
combination Emax [14]: 0.749
combination Emax [15]: 0.771
combination Emax [16]: 0.456
combination Emax [17]: 0.967
combination Emax [18]: 0.783
combination Emax [20]: 0.841

C=CCn1c(=O)c2cnc(Nc3ccc(N4CCN(C)CC4)cc3)nc2n1-c1cccc(C(C)(C)O)n1 [AZD1775] + C[C@@H]1COCCN1C2=NC(=NC(=C2)C3(CC3)[S@](=N)(=O)C)C4=C5C=CNC5=NC=C4 [AZD6738] (first compound max 1 µM, partner max 10 µM)
combination Emax [1]: 0.928
combination Emax [2]: 0.595
combination Emax [3]: 0.927
combination Emax [4]: 0.638
combination Emax [5]: 0.597
combination Emax [6]: 1
combination Emax [7]: 0.782
combination Emax [8]: 0.882
combination Emax [9]: 0.59
combination Emax [10]: 0.771
combination Emax [11]: 0.627
combination Emax [12]: 0.951
combination Emax [13]: 0.893
combination Emax [14]: 0.731
combination Emax [15]: 0.939
combination Emax [16]: 0.526
combination Emax [17]: 1
combination Emax [18]: 0.955
combination Emax [19]: 0.932
combination Emax [20]: 0.881

C=CCn1c(=O)c2cnc(Nc3ccc(N4CCN(C)CC4)cc3)nc2n1-c1cccc(C(C)(C)O)n1 [AZD1775] + O=C(c1cc(Cc2n[nH]c(=O)c3ccccc23)ccc1F)N1CCN(C(=O)C2CC2)CC1 [Olaparib] (first compound max 1 µM, partner max 10 µM)
combination Emax [1]: 0.796
combination Emax [2]: 0.318
combination Emax [3]: 0.713
combination Emax [4]: 0.119
combination Emax [5]: 0.334
combination Emax [6]: 1
combination Emax [7]: 0.746
combination Emax [8]: 0.914
combination Emax [9]: 0.258
combination Emax [10]: 0.355
combination Emax [11]: 0.601
combination Emax [12]: 0.778
combination Emax [13]: 0.864
combination Emax [14]: 0.569
combination Emax [15]: 0.928
combination Emax [16]: 0.251
combination Emax [17]: 1
combination Emax [18]: 0.913
combination Emax [19]: 0.865
combination Emax [20]: 0.816

CN(CCO)CC[C@H](CSc1ccccc1)Nc1ccc(S(=O)(=O)NC(=O)c2ccc(N3CCC([C@@H](O)c4ccccc4-c4ccc(Cl)cc4)CC3)cc2)cc1S(=O)(=O)C(F)(F)F [AZD4320] + Cn1cnc2c(F)c(Nc3ccc(Br)cc3Cl)c(C(=O)NOCCO)cc21 [Selumetinib] (first compound max 1 µM, 7x7, partner max 3 µM)
combination Emax [2]: 0.519
combination Emax [3]: 0.9
combination Emax [4]: 0.366
combination Emax [5]: 0.257
combination Emax [6]: 1
combination Emax [7]: 0.999
combination Emax [8]: 0.699
combination Emax [9]: 0.397
combination Emax [10]: 0.314
combination Emax [11]: 0.705
combination Emax [12]: 0.758
combination Emax [13]: 0.556
combination Emax [14]: 0.739
combination Emax [15]: 0.793
combination Emax [16]: 0.69
combination Emax [17]: 0.346
combination Emax [18]: 0.684
combination Emax [19]: 0.502
combination Emax [20]: 1

COc1nnc2ccc(N3CCC(c4ccc(OCCN5CCN(C)C(=O)[C@H]5C)cc4)CC3)nn12 [AZD5153] + CN(CC[C@H](CSC1=CC=CC=C1)NC2=C(C=C(C=C2)S(=O)(=O)NC(=O)C3=CC=C(C=C3)N4CCC(CC4)[C@H](C5=CC=CC=C5C6=CC=C(C=C6)Cl)O)S(=O)(=O)C(F)(F)F)CCO [AZD4320] (first compound max 1 µM, 7x7, partner max 1 µM)
combination Emax [2]: 0.292
combination Emax [3]: 0.727
combination Emax [4]: 0.983
combination Emax [6]: 1
combination Emax [9]: 0.335
combination Emax [10]: 0.667
combination Emax [12]: 0.984
combination Emax [16]: 0.552

Cc1nc(Nc2ncc(C(=O)Nc3c(C)cccc3Cl)s2)cc(N2CCN(CCO)CC2)n1 [Dasatinib] + CC(=O)Nc1cccc(-n2c(=O)n(C3CC3)c(=O)c3c(Nc4ccc(I)cc4F)n(C)c(=O)c(C)c32)c1 [Trametinib] (first compound max 2 µM, 7x7, partner max 1 µM)
combination Emax [1]: 0.955
combination Emax [2]: 0.701
combination Emax [3]: 0.697
combination Emax [4]: 0.295
combination Emax [5]: 0.924
combination Emax [6]: 0.32
combination Emax [7]: 0.243
combination Emax [8]: 0.63
combination Emax [9]: 0.548
combination Emax [10]: 0.986
combination Emax [11]: 0.486
combination Emax [12]: 0.444
combination Emax [13]: 0.801
combination Emax [14]: 0.798
combination Emax [15]: 0.713
combination Emax [17]: 0.602
combination Emax [18]: 0.141
combination Emax [19]: 0.865
combination Emax [20]: 0.691

CS(=O)(=O)CCNCc1ccc(-c2ccc3ncnc(Nc4ccc(OCc5cccc(F)c5)c(Cl)c4)c3c2)o1 [Lapatinib] + NC1(c2ccc(-c3nc4ccn5c(=O)[nH]nc5c4cc3-c3ccccc3)cc2)CCC1 [MK-2206] (first compound max 10 µM, 7x7, partner max 10 µM)
combination Emax [1]: 0.721
combination Emax [5]: 0.638
combination Emax [7]: 0.888
combination Emax [8]: 0.892
combination Emax [9]: 0.207
combination Emax [11]: 0.911
combination Emax [12]: 0.962
combination Emax [13]: 0.972
combination Emax [14]: 0.891
combination Emax [15]: 0.76
combination Emax [17]: 0.953
combination Emax [18]: 0.933
combination Emax [19]: 0.52
combination Emax [20]: 0.898

CCc1c2c(nc3ccc(O)cc13)-c1cc3c(c(=O)n1C2)COC(=O)[C@]3(O)CC [SN-38] + O=C(c1cc(Cc2n[nH]c(=O)c3ccccc23)ccc1F)N1CCN(C(=O)C2CC2)CC1 [Olaparib] (first compound max 0.3 µM, 7x7, partner max 10 µM)
combination Emax [1]: 0.911
combination Emax [2]: 0.781
combination Emax [3]: 0.704
combination Emax [4]: 0.761
combination Emax [5]: 0.63
combination Emax [6]: 1
combination Emax [7]: 0.87
combination Emax [8]: 0.456
combination Emax [11]: 0.785
combination Emax [12]: 0.905
combination Emax [13]: 0.734
combination Emax [14]: 0.479
combination Emax [15]: 0.839
combination Emax [17]: 0.99
combination Emax [18]: 0.909
combination Emax [19]: 0.575
combination Emax [20]: 0.994

C[C@@H](c1ccc2nccn2c1)n1nnc2ncc(-c3cnn(C)c3)nc21 [Savolitinib] + CN(CC[C@H](CSC1=CC=CC=C1)NC2=C(C=C(C=C2)S(=O)(=O)NC(=O)C3=CC=C(C=C3)N4CCC(CC4)[C@H](C5=CC=CC=C5C6=CC=C(C=C6)Cl)O)S(=O)(=O)C(F)(F)F)CCO [AZD4320] (first compound max 1 µM, 7x7, partner max 1 µM)
combination Emax [2]: 0.15
combination Emax [3]: 0.29
combination Emax [4]: 0.423
combination Emax [6]: 1
combination Emax [9]: 0.187
combination Emax [10]: 0.188
combination Emax [12]: 0.694
combination Emax [16]: 0.172
